Laboratory results taken from publication PMC6709224, “PIM-Related Kinases Selectively Regulate Olfactory Sensations in Caenorhabditis elegans” (eNeuro, 2019).

Columns and labels:
Type in all cases: biochemical
[1] = molecular target: T1, PIM-1 (Homo sapiens, UniProt P11309); test: radioactive in vitro kinase assay (autophosphorylation and NFATC1 […]-418 phosphorylation); conditions: 10 µM inhibitor, 10-20 min pre-incubation, gamma-32P-ATP, 0.1% DMSO control
T1 construct: gene PIM1; full-length short isoform (313 residues, recalled), GST fusion expressed in bacteria

[2] = molecular target: T2, PRK-2 (Caenorhabditis elegans, UniProt Q20443); test: as above; conditions: 10 µM inhibitor, 10-20 min pre-incubation, gamma-32P-ATP, 0.1% DMSO control
T2 construct: full-length, GST fusion in pGEX-6P-2, expressed in bacteria
T2 sequence (Q20443 1-441): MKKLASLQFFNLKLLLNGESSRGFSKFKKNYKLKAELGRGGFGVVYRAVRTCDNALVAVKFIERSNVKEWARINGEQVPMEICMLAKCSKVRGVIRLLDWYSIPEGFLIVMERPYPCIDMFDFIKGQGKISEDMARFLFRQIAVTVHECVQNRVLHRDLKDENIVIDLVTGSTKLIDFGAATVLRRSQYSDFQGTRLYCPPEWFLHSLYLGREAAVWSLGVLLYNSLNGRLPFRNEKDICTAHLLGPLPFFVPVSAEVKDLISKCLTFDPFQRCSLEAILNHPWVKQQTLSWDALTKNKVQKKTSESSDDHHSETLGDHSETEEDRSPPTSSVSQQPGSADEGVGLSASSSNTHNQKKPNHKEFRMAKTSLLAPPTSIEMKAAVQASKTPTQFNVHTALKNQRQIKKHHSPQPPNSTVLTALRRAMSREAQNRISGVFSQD

[3] = molecular target: T1, PIM-1; test: radioactive in vitro kinase assay, autoradiography; conditions: labelled compound; autophosphorylation and GST-NFATC1 (1-418) as acceptor
[4] = molecular target: T2, PRK-2; test: radioactive in vitro kinase assay, autoradiography; conditions: labelled compound; autophosphorylation and GST-NFATC1 (1-418) as acceptor

T1 sequence (P11309 whole entry, the tested form may be a part, canonical isoform): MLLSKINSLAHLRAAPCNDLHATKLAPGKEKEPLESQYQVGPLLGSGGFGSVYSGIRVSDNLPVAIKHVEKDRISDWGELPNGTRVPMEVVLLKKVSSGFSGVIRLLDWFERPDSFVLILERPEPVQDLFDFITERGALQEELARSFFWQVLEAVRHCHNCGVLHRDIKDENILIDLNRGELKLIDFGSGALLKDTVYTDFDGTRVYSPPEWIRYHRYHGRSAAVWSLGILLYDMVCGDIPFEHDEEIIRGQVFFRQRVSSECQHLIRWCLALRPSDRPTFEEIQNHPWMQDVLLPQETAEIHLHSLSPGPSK

SMILES | relative phosphorylation at 10 μM [1] | relative phosphorylation at 10 μM [2] | radioactive in vitro kinase assay, autoradiography [3] | radioactive in vitro kinase assay, autoradiography [4]
O=Cc1c[nH]c2c1ccc1c3ccccc3[nH]c12 [DHPCC-9] | DHPCC-9 was able to inhibit autophosphorylation of not only PIM-1, but also PRK-2 | DHPCC-9 was able to inhibit autophosphorylation of not only PIM-1, but also PRK-2 |  | 
Nc1ncnc2c1ncn2[C@@H]1O[C@H](COP(=O)(O)OP(=O)(O)OP(=O)(O)O)[C@@H](O)[C@H]1O [γ-32P-ATP] |  |  | both PIM-1 and PRK-2 were able to autophosphorylate themselves | both PIM-1 and PRK-2 were able to autophosphorylate themselves
